{
  "source": "paper PMC6321136",
  "about": "“Combined In Vitro Studies and in Silico Target Fishing for the Evaluation of the Biological Activities of Diphylleia cymosa and Podophyllum hexandrum” (Molecules, 2018)",
  "key": {"[1]": {"assay": "Thiobarbituric acid reactive substances (TBARS) assay", "parameters": "species or system bovine", "description": "The evaluation of antioxidant activity using the TBARS assay, with adaptations. Briefly, the samples were solubilized in methanol (50.0 to 31.25 μg/mL) and a portion of 25 μL of each extract solution was added to 10 mL test tubes in triplicate (two reaction tubes and one control). The tubes corresponding to the blank, negative and positive controls were prepared by adding 25 μL of deionized water, MeOH or propylgalate (Sigma, St. Louis, MO, USA, 0.1 mM), respectively. The phospholipid liposomes were prepared using bovine brain extract type VII (Sigma Aldrich, St. Louis, MO, USA, 10 mg/mL) in phosphate buffered saline (PBS) solution. The suspension was subjected to an ultrasonic bath until the formation of the liposomes. […] The butanolic phase was removed and transferred to a 96-well microplate, and the absorbance was recorded on a Multiskan Go microplate reader (Thermo Scientific, Whaltham, MA, USA) at 532 nm. The percentage of inhibition (%I) of lipid peroxidation was calculated as: %I = ((AC − AS)/AC) × 100 where AC is the absorbance of control, AS is the absorbance of samples. Assays were performed in triplicate and IC50 values were determined by non-linear regression using GraphPad Prism, version 6.0 (GraphPad Software, San Diego, CA, USA). […]"}, "[2]": {"system": "1-acylglycerol-3-phosphate O-acyltransferase ABHD5", "parameters": "method as in PubChem Bioassay AID 493027", "settings": "ref PubChem Bioassay AID 493027; cited from earlier work"}, "[3]": {"system": "ADMET, Cytochrome P450 3A4", "parameters": "method as in PubChem Bioassay AID 885", "settings": "ref PubChem Bioassay AID 885; cited from earlier work"}, "[4]": {"system": "Agonist, endoplasmic reticulum stress response", "parameters": "method as in PubChem Bioassay AID 1159519", "settings": "ref PubChem Bioassay AID 1159519; cited from earlier work"}, "Agonist, Histone H2A.x": {"system": "Agonist, Histone H2A.x", "parameters": "method as in PubChem Bioassay AID 1224845", "settings": "ref PubChem Bioassay AID 1224845; cited from earlier work"}, "Agonist, hypoxia": {"system": "Agonist, hypoxia", "parameters": "method as in PubChem Bioassay AID 1224894", "settings": "ref PubChem Bioassay AID 1224894; cited from earlier work"}, "[5]": {"system": "Agonist, thyroid stimulating hormone receptor (TSHR)", "parameters": "method as in PubChem Bioassay AID 1224843", "settings": "ref PubChem Bioassay AID 1224843; cited from earlier work"}, "Angiogenesis model": {"system": "Angiogenesis model", "parameters": "method as in PubChem Bioassay AID 575", "settings": "ref PubChem Bioassay AID 575; cited from earlier work"}, "[6]": {"system": "Antagonist, thyroid receptor (TR)", "parameters": "method as in PubChem Bioassay AID 743067", "settings": "ref PubChem Bioassay AID 743067; cited from earlier work"}, "Anticancer, Leukemia": {"system": "Anticancer, Leukemia", "parameters": "method as in PubChem Bioassay AID 250", "settings": "ref PubChem Bioassay AID 250; cited from earlier work"}, "Anticancer, Lung Tumor": {"system": "Anticancer, Lung Tumor", "parameters": "method as in PubChem Bioassay AID 270", "settings": "ref PubChem Bioassay AID 270; cited from earlier work"}, "Anticancer, Sarcoma": {"system": "Anticancer, Sarcoma", "parameters": "method as in PubChem Bioassay AID 292", "settings": "ref PubChem Bioassay AID 292; cited from earlier work"}, "Anticancer, Yes1 kinase": {"system": "Anticancer, Yes1 kinase", "parameters": "method as in PubChem Bioassay AID 686947", "settings": "ref PubChem Bioassay AID 686947; cited from earlier work"}, "AP1 Signaling Pathway": {"system": "AP1 Signaling Pathway", "parameters": "method as in PubChem Bioassay AID 357", "settings": "ref PubChem Bioassay AID 357; cited from earlier work"}, "[7]": {"system": "Cell Cycle Modulation (counterscreen)", "parameters": "method as in PubChem Bioassay AID 1117349", "settings": "ref PubChem Bioassay AID 1117349; cited from earlier work"}, "[8]": {"system": "Cytotoxicity, Agonist, constitutive androstane receptor (CAR)", "parameters": "method as in PubChem Bioassay AID 1224836", "settings": "ref PubChem Bioassay AID 1224836; cited from earlier work"}, "[9]": {"system": "Cytotoxicity, Agonist, vitamin D receptor (VDR)", "parameters": "method as in PubChem Bioassay AID 743224", "settings": "ref PubChem Bioassay AID 743224; cited from earlier work"}},
  "data": [
    {"smiles": "COc1cc([C@@H]2c3cc4c(cc3[C@H](O)[C@H]3COC(=O)[C@H]23)OCO4)cc(OC)c1OC", "note": "[Podophyllotoxin, podophyllotoxin]", "values": [
      {"measurement": "Antioxidant Activity (IC50-µg/mL) TBARS Assay", "setting": "[1]", "result": ">50", "unit": "µg/mL"},
      {"measurement": "Exper. Activity", "setting": "[2]", "result": "Inactive"},
      {"measurement": "Exper. Activity", "setting": "[3]", "result": "Inactive"},
      {"measurement": "Exper. Activity", "setting": "[4]", "result": "Inactive"},
      {"measurement": "Exper. Activity", "setting": "Agonist, Histone H2A.x", "result": "Inactive"},
      {"measurement": "Exper. Activity", "setting": "Agonist, hypoxia", "result": "Inactive"},
      {"measurement": "Exper. Activity", "setting": "[5]", "result": "Inactive"},
      {"measurement": "Exper. Activity", "setting": "Angiogenesis model", "result": "Inactive"},
      {"measurement": "Exper. Activity", "setting": "[6]", "result": "Active"},
      {"measurement": "Exper. Activity", "setting": "Anticancer, Leukemia", "result": "Inactive"},
      {"measurement": "Exper. Activity", "setting": "Anticancer, Lung Tumor", "result": "Inactive"},
      {"measurement": "Exper. Activity", "setting": "Anticancer, Sarcoma", "result": "Active"},
      {"measurement": "Exper. Activity", "setting": "Anticancer, Yes1 kinase", "result": "Inactive"},
      {"measurement": "Exper. Activity", "setting": "AP1 Signaling Pathway", "result": "Inactive"},
      {"measurement": "Exper. Activity", "setting": "[7]", "result": "Active"},
      {"measurement": "Exper. Activity", "setting": "[8]", "result": "Inactive"},
      {"measurement": "Exper. Activity", "setting": "[9]", "result": "Inactive"}
    ]}
  ]
}
